Patent publication US20250115648A1 (priority 2013, published 2025)
Where “and” joins values, the source holds several entries; their conditions need not be identical. Equal values may be shown once.

Key:
[1] = mouse, in vivo
U87 flank xenografts = system: U87 flank xenografts; set-up: species or system mice; conditions: mouse, in vivo
[2] = cited from earlier work; for Peak Abs.: peak absorbance wavelength of exemplary fluorescent reporter molecule; for Peak Em.: peak emission wavelength of exemplary fluorescent reporter molecule
CD-1 mice = experiment: Activity level of CD-1 mice after injection of free peptides; conditions: high dose (200 nmol), IV, starting 3 minutes post injection

Molecule | Peak Abs. [2] | Peak Em. [2] | also measured
CC1(C)C(/C=C/C=C/C=C/C=C2\N(CCCCS(=O)(=O)[O-])c3ccc4ccccc4c3C2(C)C)=[N+](CCCCS(=O)(=O)[O-])c2ccc3ccccc3c21.[Na+] [ICG free dye, Cardiogreen (ICG)] |  |  | Detection in fecal matter [1]: detectable in the fecal matter; Detection in liver, kidney, spleen, or brain [1]: not detectable; Targeting / detection in tumor tissue (U87 flank xenografts): not detected
CC1CC(C)(C)Nc2c1cc1c(c2S(=O)(=O)[O-])Oc2c(S(=O)(=O)[O-])c3c(cc2=C1c1c(Cl)c(SCC(=O)NCCCCCC(=O)ON2C(=O)CCC2=O)c(Cl)c(Cl)c1C(=O)O)C(C)CC(C)(C)N=3.[H+].[Na+] (stereo not shown) [Alexa Fluor 546] | 561 nanometers | 572 nanometers | 
TOTO-3 | 642 nanometers | 661 nanometers | 
Nc1ccc2cc3ccc(N)cc3[n+](CCCC(=O)O)c2c1.[O-][Cl+3]([O-])([O-])[O-] [ATTO 465] | 453 nanometers | 507 nanometers | 
O=C(O)c1cc2cc(F)c(O)c(F)c2oc1=O [Pacific Blue] | 405 nanometers and 410 nanometers | 455 nanometers | 
Cc1c2oc3c(C)c(N)cc(C(=O)N[C@@H]4C(=O)N[C@H](C(C)C)C(=O)N5CCC[C@H]5C(=O)N(C)CC(=O)N(C)[C@@H](C(C)C)C(=O)O[C@@H]4C)c3nc-2c(C(=O)N[C@@H]2C(=O)N[C@H](C(C)C)C(=O)N3CCC[C@H]3C(=O)N(C)CC(=O)N(C)[C@@H](C(C)C)C(=O)O[C@@H]2C)c(N)c1=O [Compound 7-AAD, 7-AAD] | 549 nanometers | 644 nanometers | 
CC1(C)C(=CC=C2CCCC(C=CC3=[N+](CCCCCC(=O)[O-])c4ccc(S(=O)(=O)[O-])cc4C3(C)C)=C2Oc2ccc(S(=O)(=O)[O-])cc2)N(CCCCS(=O)(=O)[O-])c2ccc(S(=O)(=O)[O-])cc21.[Na+].[Na+].[Na+].[Na+] [IRDye 800CW] | 774 nanometers | 789 nanometers | 
Rhod-2 | 551 nanometers | 576 nanometers | 
SYTO 16 | 490 nanometers | 520 nanometers | 
CC(=O)Oc1cc2c(cc1Cl)C(c1ccccc1C(=O)O)c1cc(Cl)c(OC(C)=O)cc1O2 [H2DCFDA (H2-DCF, DCFR)] | 504 nanometers | 540 nanometers | 
CC[N+]1=c2cc3c(cc2CCC1)=Nc1cc2c(cc1O3)N(CCCC(=O)O)C(C)(C)C=C2CS(=O)(=O)[O-] [ATTO 680] | 680 nanometers | 700 nanometers | 
CFP: Exemplary fluorescent reporter molecules | 434 nanometers |  | 
Fast Blue | 360 nanometers | 440 nanometers | 
Chlorotoxin [KNT-01] |  |  | Activity level after free peptide injection (CD-1 mice): decrease in activity level, somnolence, and prostration
Nc1ccc([N+](=O)[O-])c2nonc12 [NBD Amine] | 450 nanometers | 530 nanometers | 
O=S(=O)(O)c1cc(Nc2nc(Nc3ccccc3)nc(N(CCO)CCO)n2)ccc1/C=C/c1ccc(Nc2nc(Nc3ccccc3)nc(N(CCO)CCO)n2)cc1S(=O)(=O)O [Calcofluor White] | 350 nanometers | 440 nanometers | 
CCCCCCCCCCCCCCCCCCN1/C(=C/C=C/C=C/C2=[N+](CCCCCCCCCCCCCCCCCC)c3ccccc3C2(C)C)C(C)(C)c2ccccc21.[O-][Cl+3]([O-])([O-])[O-] [DiD (Vybrant DiD)] | 645 nanometers | 670 nanometers | 
Methoxycoumarin | 360 nanometers | 410 nanometers | 
CC(=O)Oc1ccc2c(c1)Oc1cc(OC(C)=O)ccc1C21OC(=O)c2cc(CCl)ccc21 [CellTracker Green] | 490 nanometers | 540 nanometers | 
C[N+]1=C(/C=C/C=C/C=C2\N(Cc3ccc(CCl)cc3)c3ccccc3C2(C)C)C(C)(C)c2ccccc21.[Cl-] [MitoTracker Deep Red FM] | 641 nanometers | 661 nanometers | 

Molecule | Peak Abs. [2] | Peak Em. [2] | also measured
O=c1cc(CBr)c2cc3c4c(c2o1)CCCN4CCC3 [CellTracker Violet BMQC] | 415 nanometers | 516 nanometers | 
CCCCCCCCCCCC[N+](C)(CCCS(=O)(=O)[O-])Cc1ccc2oc(-c3ccc(N(CC)CC)cc3)c(O)c(=O)c2c1 (stereo not shown) [Compound F2N12S] | 405 nanometers |  | 
Texas Red | 592 nanometers | 615 nanometers | 
SYTO 9 | 482 nanometers | 500 nanometers | 
O=C([O-])CN(CC(=O)[O-])c1ccccc1OCCOc1cc(NC(=O)c2ccc3c(c2)C(=O)OC32c3cc(Cl)c([O-])cc3Oc3cc([O-])c(Cl)cc32)ccc1N(CC(=O)[O-])CC(=O)[O-].[K+].[K+].[K+].[K+].[K+].[K+] [Calcium Green-1] | 506 nanometers | 540 nanometers | 
CC1(C)C=C(CS(=O)(=O)O)c2cc3c(C(F)(F)F)cc(=O)oc3cc2N1CCCCCC(=O)ON1C(=O)CCC1=O.CCN(CC)CC [Alexa Fluor 430] |  | 540 nanometers | 
CN(C)c1ccc(-c2cnc(-c3ccc(S(=O)(=O)NCCNC(=O)c4c(F)c(F)c(F)c(F)c4F)cc3)o2)cc1 [ER-Tracker Blue-White DPX] | 371 nanometers | 554 nanometers | 
Cc1c(CC(=O)O)c(=O)oc2cc(N)ccc12 [AMCA, aminomethylcoumarin] | 345 nanometers | 425 nanometers | 
CCN1c2cc3c(cc2C(C)=CC1(C)C)N=c1cc2c(cc1O3)=[N+](CCCC(=O)O)C(C)(C)C=C2CS(=O)(=O)O [ATTO 700] | 699 nanometers | 719 nanometers | 
O=C(COc1ccc(C2=[N+]3C(=Cc4ccc(-c5cccs5)n4[B-]3(F)F)C=C2)cc1)NCCCCCC(=O)ON1C(=O)CCC1=O [Bodipy TR-X] | 588 nanometers | 621 nanometers | 
CC[N+]1=c2cc3c(cc2C(CS(=O)(=O)O)=CC1(C)C)=Cc1cc2c(cc1C3(C)C)N(CCCC(=O)O)C(C)(C)CC2C.[O-][Cl+3]([O-])([O-])[O-] (stereo not shown) [ATTO 647] | 644 nanometers | 670 nanometers | 
CN1/C(=C/c2cc[n+](CCC[N+](C)(C)CCC[N+](C)(C)CCC[n+]3ccc(/C=C4/Oc5ccccc5N4C)cc3)cc2)Oc2ccccc21.[I-].[I-].[I-].[I-] [POPO-1] | 434 nanometers | 456 nanometers | 
CC1(C)C2=C(Cl)C(=O)C(Cl)=CC2=Nc2ccc(O)cc21 [DDAO] | 648 nanometers | 658 nanometers | 
CC1=CC(C)=[N+]2C1=Cc1c(C)cc(C)n1[B-]2(F)F [BODIPY 505/515] | 502 nanometers | 540 nanometers | 
carboxy-X-rhodamine [ROX (6-ROX)] | 568 nanometers | 595 nanometers | 
ClCc1ccc(C2=c3cc4c5c(c3Oc3c2cc2c6c3CCCN6CCC2)CCC[N+]=5CCC4)cc1.[Cl-] [MitoTracker Red CMXRos] | 578 nanometers | 597 nanometers | 
Cy5.5 | 672 nanometers and 678 nanometers | 690 nanometers and 696 nanometers | 
CN(C)c1ccc2c(-c3ccc(CCl)cc3)c3ccc(=[N+](C)C)cc-3oc2c1.[Cl-] | 551 nanometers | 576 nanometers | 
O=C(COc1ccc(/C=C/c2ccc3n2[B-](F)(F)[N+]2=C(c4cccs4)C=CC2=C3)cc1)NCCCCCC(=O)ON1C(=O)CCC1=O [Bodipy 630/650-X] |  | 641 nanometers | 
O=S(=O)([O-])c1cc(O)c2ccc3c(S(=O)(=O)[O-])cc(S(=O)(=O)[O-])c4ccc1c2c34.[Na+].[Na+].[Na+] [HPTS (Solvent Green 7)] | 455 nanometers | 510 nanometers | 
